Measured values taken from patent US9187472B2 (AbbVie Inc., priority 2012, dated 2015).

How the values were obtained:
[1] = biological target: NAMPT (human, recombinant, C-terminally His-tagged) (Homo sapiens, UniProt P43490); assay: Time-Resolved Fluorescence Resonance Energy Transfer (TR-FRET) Binding Assay of NAMPT; settings: without substrates; 6.8 nM NAMPT, 200 nM probe, 3 hours equilibration
Summary of the method: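 Compounds, diluted in half-log steps, are mixed with enzyme (6.8 nM), fluorescent probe (200 nM) and Tb-anti-His antibody (1 nM) in pH 7.5 HEPES buffer containing 10 mM MgCl2 and 1 mM DTT. Plates equilibrate 3 h at room temperature; normalized FRET ratios are fitted by four-parameter logistic regression for IC50.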

[2] = biological target: NAMPT (Homo sapiens, UniProt P43490); assay: TR-FRET Binding Assay of NAMPT with PRPP; settings: with 200 μM PRPP and 2.5 mM ATP; 2 nM NAMPT, 2 nM probe, 16 hours equilibration
NAMPT, sequence (P43490 whole entry): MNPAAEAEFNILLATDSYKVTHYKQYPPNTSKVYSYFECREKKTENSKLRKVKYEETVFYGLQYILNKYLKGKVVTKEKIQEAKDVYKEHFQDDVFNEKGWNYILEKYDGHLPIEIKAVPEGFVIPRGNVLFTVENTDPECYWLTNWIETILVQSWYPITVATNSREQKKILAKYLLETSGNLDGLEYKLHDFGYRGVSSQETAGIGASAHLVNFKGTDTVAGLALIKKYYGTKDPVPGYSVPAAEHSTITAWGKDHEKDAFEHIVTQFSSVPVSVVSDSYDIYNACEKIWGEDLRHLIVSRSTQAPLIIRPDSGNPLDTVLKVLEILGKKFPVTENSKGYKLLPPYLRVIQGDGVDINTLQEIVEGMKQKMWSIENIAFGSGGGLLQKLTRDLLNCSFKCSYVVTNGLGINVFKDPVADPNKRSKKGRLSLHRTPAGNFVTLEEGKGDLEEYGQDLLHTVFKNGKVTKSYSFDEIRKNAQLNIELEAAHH
Summary of the method: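 Compounds were mixed with 2 nM His-tagged NAMPT, 2 nM probe, 1 nM terbium anti-His antibody, 200 μM PRPP and 2.5 mM ATP in assay buffer with 2% DMSO, then left 16 hours to permit possible enzymatic processing of compounds before time-resolved FRET was measured.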

[3] = test system: PC3 cells; assay: NAMPT Cell Proliferation Assay; assay type: cell-based; settings: Homo sapiens, PC-3, 120 h, 5 days incubation, cell viability by Cell Titer Glo
Summary of the method: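 Seed PC3 at 500 cells/well (RPMI, 10% HI-FBS), attach overnight; add compound, 10-fold series 10 μM → 1×10^−5 μM; incubate 5 d, 37° C/5% CO2; luminescent viability readout; fit % inhibition sigmoidally for IC50.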

NAMPT (human, recombinant, C-terminally His-tagged), sequence (P43490 whole entry): as above

CC(C)(C)OC(=O)N1CC=C(c2ccc(C(=O)NCc3ccc4nccn4c3)cc2)CC1 [Example 83, tert-butyl 4-{4-[(imidazo[1,2-a]pyridin-6-ylmethyl)carbamoyl]phenyl}-3,6-dihydropyridine-1(2H)-carboxylate]
IC50 [1]: 899 nM | IC50 [2]: 2.3 nM | IC50 [3]: 24.3 nM

O=C(CC1CCCC1)Nc1ccc(CNC(=O)c2ccc3nccn3c2)cc1 [Example 84, N-{4-[(cyclopentylacetyl)amino]benzyl}imidazo[1,2-a]pyridine-6-carboxamide]
IC50 [1]: 1670 nM | IC50 [2]: 10.9 nM | IC50 [3]: 762 nM

O=C(NCc1ccc2nccn2c1)c1cnc(N2CCc3ccccc3CC2)s1 [Example 85, N-(imidazo[1,2-a]pyridin-6-ylmethyl)-2-(1,2,4,5-tetrahydro-3H-3-benzazepin-3-yl)-1,3-thiazole-5-carboxamide]
IC50 [1]: 4070 nM | IC50 [2]: 1.41 nM | IC50 [3]: 2610 nM

O=C(NCc1ccc2nccn2c1)c1cnc(N2CCC(c3ccccc3)C2)s1 (stereo not drawn) [Example 86, N-(imidazo[1,2-a]pyridin-6-ylmethyl)-2-(3-phenylpyrrolidin-1-yl)-1,3-thiazole-5-carboxamide]
IC50 [1]: 2040 nM | IC50 [2]: 11.9 nM | IC50 [3]: 5720 nM

CC(C)CCNc1ncc(C(=O)NCc2ccc3nccn3c2)s1 [Example 87, N-(imidazo[1,2-a]pyridin-6-ylmethyl)-2-[(3-methylbutyl)amino]-1,3-thiazole-5-carboxamide]
IC50 [1]: 2050 nM | IC50 [2]: 1.35 nM | IC50 [3]: 6580 nM

O=C(NCc1ccc2nccn2c1)c1cnc(N2Cc3ccccc3C2)s1 [Example 88, 2-(1,3-dihydro-2H-isoindol-2-yl)-N-(imidazo[1,2-a]pyridin-6-ylmethyl)-1,3-thiazole-5-carboxamide]
IC50 [1]: 2850 nM | IC50 [2]: 8.55 nM | IC50 [3]: 8110 nM

CC(C)(C)OC(=O)N1CCC(c2ccc(NC(=O)Nc3ccc4nccn4c3)cc2)CC1 [Example 89, tert-butyl 4-{4-[(imidazo[1,2-a]pyridin-6-ylcarbamoyl)amino]phenyl}piperidine-1-carboxylate]
IC50 [1]: 667 nM | IC50 [2]: 0.383 nM | IC50 [3]: 113 nM

CC(C)C(=O)N1CC=C(c2ccc(C(=O)NCc3ccc4nccn4c3)cc2)CC1 [Example 90, N-(imidazo[1,2-a]pyridin-6-ylmethyl)-4-[1-(2-methylpropanoyl)-1,2,3,6-tetrahydropyridin-4-yl]benzamide]
IC50 [1]: 204 nM | IC50 [2]: 0.63 nM | IC50 [3]: 18.7 nM

CC(C)(O)C(=O)N1CC=C(c2ccc(C(=O)NCc3ccc4nccn4c3)cc2)CC1 [Example 91, 4-[1-(2-hydroxy-2-methylpropanoyl)-1,2,3,6-tetrahydropyridin-4-yl]-N-(imidazo[1,2-a]pyridin-6-ylmethyl)benzamide]
IC50 [1]: 174 nM | IC50 [2]: 1.26 nM | IC50 [3]: 13.9 nM

O=C(NCc1ccc2nccn2c1)c1ccc(C2=CCN(C(=O)CN3CCOCC3)CC2)cc1 [Example 92, N-(imidazo[1,2-a]pyridin-6-ylmethyl)-4-[1-(morpholin-4-ylacetyl)-1,2,3,6-tetrahydropyridin-4-yl]benzamide]
IC50 [1]: 183 nM | IC50 [2]: 0.881 nM | IC50 [3]: 9.48 nM

O=C(NCc1ccc2nccn2c1)c1ccc(C2=CCN(C(=O)CC3CCOCC3)CC2)cc1 [Example 93, N-(imidazo[1,2-a]pyridin-6-ylmethyl)-4-[1-(tetrahydro-2H-pyran-4-ylacetyl)-1,2,3,6-tetrahydropyridin-4-yl]benzamide]
IC50 [1]: 389 nM | IC50 [2]: 1.39 nM | IC50 [3]: 7.13 nM

O=C(NCc1ccc2nccn2c1)c1ccc(C2=CCN(C(=O)CC3CCOC3)CC2)cc1 (stereo not drawn) [Example 94, N-(imidazo[1,2-a]pyridin-6-ylmethyl)-4-[1-(tetrahydrofuran-3-ylacetyl)-1,2,3,6-tetrahydropyridin-4-yl]benzamide]
IC50 [1]: 290 nM | IC50 [2]: 0.593 nM | IC50 [3]: 14.2 nM

O=C(NCc1ccc2nccn2c1)c1ccc(C2=CCN(C(=O)CC3CCCO3)CC2)cc1 (stereo not drawn) [Example 95, N-(imidazo[1,2-a]pyridin-6-ylmethyl)-4-[1-(tetrahydrofuran-2-ylacetyl)-1,2,3,6-tetrahydropyridin-4-yl]benzamide]
IC50 [1]: 201 nM | IC50 [2]: 0.991 nM | IC50 [3]: 10.6 nM

O=C(NCc1ccc2nccn2c1)c1ccc(C2=CCN(C(=O)CCC3CCCO3)CC2)cc1 (stereo not drawn) [Example 96, N-(imidazo[1,2-a]pyridin-6-ylmethyl)-4-{1-[3-(tetrahydrofuran-2-yl)propanoyl]-1,2,3,6-tetrahydropyridin-4-yl}benzamide]
IC50 [1]: 192 nM | IC50 [2]: 1.56 nM | IC50 [3]: 9.65 nM

O=C(NCc1ccc2nccn2c1)c1ccc(C2=CCN(C(=O)CC3CCCC3)CC2)cc1 [Example 97, 4-[1-(cyclopentylacetyl)-1,2,3,6-tetrahydropyridin-4-yl]-N-(imidazo[1,2-a]pyridin-6-ylmethyl)benzamide]
IC50 [1]: 109 nM | IC50 [2]: 0.333 nM | IC50 [3]: 4.55 nM

CC(C)OCC(=O)N1CC=C(c2ccc(C(=O)NCc3ccc4nccn4c3)cc2)CC1 [Example 98, N-(imidazo[1,2-a]pyridin-6-ylmethyl)-4-{1-[(propan-2-yloxy)acetyl]-1,2,3,6-tetrahydropyridin-4-yl}benzamide]
IC50 [1]: 120 nM | IC50 [2]: 0.367 nM | IC50 [3]: 19.4 nM

O=C(NCc1ccc2nccn2c1)c1ccc(C2=CCN(C(=O)C3CCCO3)CC2)cc1 (stereo not drawn) [Example 99, N-(imidazo[1,2-a]pyridin-6-ylmethyl)-4-[1-(tetrahydrofuran-2-ylcarbonyl)-1,2,3,6-tetrahydropyridin-4-yl]benzamide]
IC50 [1]: 119 nM | IC50 [2]: 0.411 nM | IC50 [3]: 26.4 nM

O=C(NCc1ccc2nccn2c1)c1ccc(C2=CCN(C(=O)C3CCOC3)CC2)cc1 (stereo not drawn) [Example 100, N-(imidazo[1,2-a]pyridin-6-ylmethyl)-4-[1-(tetrahydrofuran-3-ylcarbonyl)-1,2,3,6-tetrahydropyridin-4-yl]benzamide]
IC50 [1]: 102 nM | IC50 [2]: 0.169 nM | IC50 [3]: 16.2 nM

O=C(NCc1ccc2nccn2c1)c1ccc(C2=CCN(C(=O)C3CCOCC3)CC2)cc1 [Example 101, N-(imidazo[1,2-a]pyridin-6-ylmethyl)-4-[1-(tetrahydro-2H-pyran-4-ylcarbonyl)-1,2,3,6-tetrahydropyridin-4-yl]benzamide]
IC50 [1]: 332 nM | IC50 [2]: 1.73 nM | IC50 [3]: 2.44 nM

O=C(NCc1ccc2nccn2c1)c1ccc(C2=CCN(C(=O)C3COCCO3)CC2)cc1 (stereo not drawn) [Example 102, 4-[1-(1,4-dioxan-2-ylcarbonyl)-1,2,3,6-tetrahydropyridin-4-yl]-N-(imidazo[1,2-a]pyridin-6-ylmethyl)benzamide]
IC50 [1]: 385 nM | IC50 [2]: 1.21 nM | IC50 [3]: 13 nM

COCCOCC(=O)N1CC=C(c2ccc(C(=O)NCc3ccc4nccn4c3)cc2)CC1 [Example 103, N-(imidazo[1,2-a]pyridin-6-ylmethyl)-4-{1-[(2-methoxyethoxy)acetyl]-1,2,3,6-tetrahydropyridin-4-yl}benzamide]
IC50 [1]: 840 nM | IC50 [2]: 1.44 nM | IC50 [3]: 62.1 nM

O=C(NCc1ccc2nccn2c1)c1ccc(C2=CCN(C(=O)c3ccccc3)CC2)cc1 [Example 104, 4-(1-benzoyl-1,2,3,6-tetrahydropyridin-4-yl)-N-(imidazo[1,2-a]pyridin-6-ylmethyl)benzamide]
IC50 [1]: 135 nM | IC50 [2]: 2 nM | IC50 [3]: 8.46 nM

O=C(NCc1ccc2nccn2c1)c1ccc(C2=CCN(C(=O)C3CCC(F)(F)CC3)CC2)cc1 [Example 105, 4-{1-[(4,4-difluorocyclohexyl)carbonyl]-1,2,3,6-tetrahydropyridin-4-yl}-N-(imidazo[1,2-a]pyridin-6-ylmethyl)benzamide]
IC50 [1]: 106 nM | IC50 [2]: 0.476 nM | IC50 [3]: 6.61 nM

CC(C)C(=O)N1CCC(c2ccc(NC(=O)Nc3ccc4nccn4c3)cc2)CC1 [Example 106, 1-imidazo[1,2-a]pyridin-6-yl-3-{4-[1-(2-methylpropanoyl)piperidin-4-yl]phenyl}urea]
IC50 [1]: 247 nM | IC50 [2]: 0.201 nM | IC50 [3]: 78.7 nM

O=C(NCCCCC1CCN(C(=O)c2ccccc2)CC1)Nc1ccc2nccn2c1 [Example 107, 1-[4-(1-benzoylpiperidin-4-yl)butyl]-3-imidazo[1,2-a]pyridin-6-ylurea]
IC50 [1]: 45.1 nM | IC50 [2]: 0.492 nM | IC50 [3]: 10.8 nM

O=C(NCc1ccc2nccn2c1)c1cnc(N2CCc3ccccc3C2)s1 [Example 108, 2-(3,4-dihydroisoquinolin-2(1H)-yl)-N-(imidazo[1,2-a]pyridin-6-ylmethyl)-1,3-thiazole-5-carboxamide]
IC50 [1]: 1770 nM | IC50 [2]: 1.05 nM | IC50 [3]: 7660 nM

O=C(Nc1ccc(C2CCN(C(=O)C3CCOCC3)CC2)cc1)Nc1ccc2nccn2c1 [Example 109, 1-imidazo[1,2-a]pyridin-6-yl-3-{4-[1-(tetrahydro-2H-pyran-4-ylcarbonyl)piperidin-4-yl]phenyl}urea]
IC50 [1]: 340 nM | IC50 [2]: 0.209 nM | IC50 [3]: 52.2 nM

O=C(Nc1ccc(C2CCN(C(=O)CC3CCOC3)CC2)cc1)Nc1ccc2nccn2c1 (stereo not drawn) [Example 110, 1-imidazo[1,2-a]pyridin-6-yl-3-{4-[1-(tetrahydrofuran-3-ylacetyl)piperidin-4-yl]phenyl}urea]
IC50 [1]: 423 nM | IC50 [2]: 0.174 nM | IC50 [3]: 202 nM
